Laboratory results taken from patent publication US20080255168A1, “METHODS FOR ADMINISTERING DPD INHIBITORS IN COMBINATION WITH 5-FU AND 5-FU PRODRUGS” (ADHEREX TECHNOLOGIES, INC., priority 2004, published 2008).
Where two headings read alike, the source gives them in different places. Each block holds one compound with its values, some of them ahead of it.

Key:
[1] = cited from earlier work
HEK 293 cells [2] = assay: Cytotoxicity of 5-FU, MTS proliferation assay; type: cell-based; settings: Homo sapiens
Method: (§1) HEK 293 cells were initially treated with eniluracil (10 μM) for 1 hour. After a washout period ranging from 4-48 hours, cells were treated with [6-^14C]-5-FU (66 μM) for 2 hours at 37 degrees C. Controls were HEK 293 cells treated for 2 hours either with [6-^14C]-5-FU (66 μM) alone, or with eniluracil (10 μM) and [6-^14C]-5-FU (66 μM) co-administered together without preincubation. Reverse phase HPLC with radioactivity detection was utilized to quantify [6-^14C]-5-FU catabolites/anabolites present in cell lysates. In a separate set of experiments cytotoxicity of 5-FU at different eniluracil dose schedules was examined. HEK 293 cells were treated with a range of 5-FU concentrations for 72 hours at 37 degrees C. following 1 hour eniluracil (5 μM) preincubation, without eniluracil, or with eniluracil (5 μM) co-administered without preincubation. Cytotoxicity was assessed by the MTS proliferation assay and the EC50 values for 5-FU calculated.

Ward carcinoma tumors = assay: Antitumor activity in rats bearing Ward carcinoma tumors; type: in vivo; settings: for Ward carcinoma tumor response: once per week for three weeks
Method: Rats were implanted with Ward carcinoma tumors and were treated with one of the following regimens after their tumors grew to 3,000 mg in weight as previously described (Cao et al., Cancer Res 90:1507-1510, 1993). Rats bearing 3,000 mg of tumor mass were dosed at Day 0, Day 7, and Day 14 with the following treatments.
Group A rats received no treatment. Group B rats were intraperitoneally (ip) dosed with 1 mg/kg eniluracil (time (t)=0) followed by intravenous (iv) 5 mg/kg 5-FU at t=60. Group C rats were dosed ip with 1 mg/kg eniluracil (t=0) followed by 25 mg/kg eniluracil ip at t=55 minutes and by 5 mg/kg 5-FU iv at t=60 minutes. Animals were dosed once per week for three weeks. Eniluracil was also dosed ip at 1 mg/kg to rats in Groups B & C on Days 2 and 3 of each weekly treatment. The treatment for Group C mimicked the clinical trials where high levels of eniluracil were present when 5-FU was dosed.

[3] = cited from earlier work; remark: listed apart in the source
[4] = Plasma uridine levels after eniluracil, LC-MS; type: in vivo; settings: mice, eniluracil 2, 25 and 100 mg/kg, FIG. 2
Method: While eniluracil inhibition is known to cause an increase in uracil levels due to DPD inhibition, inhibitory effects on other enzymes that anabolize fluoropyrimidines would be expected to quantitatively alter the levels of other anabolites, such as uridine. Eniluracil was administered to mice at 2 mg/kg, 25 mg/kg and 100 mg/kg. Plasma samples were taken at 0 minutes, 15 minutes, 30 minutes, 60 minutes, 2 hours, 24 hours and 48 hours. Uridine levels were determined by LC-MS technology using known techniques and standards were used to validate the assay.

DPD = target: T1, DPD (Homo sapiens, UniProt Q12882); settings: cancer patients, cited from earlier work
T1 construct: 24 hours after one dose of eniluracil, the level of DPD was only 3% of the predose level; host or cells: cancer patients
T1 sequence (Q12882 4-1025): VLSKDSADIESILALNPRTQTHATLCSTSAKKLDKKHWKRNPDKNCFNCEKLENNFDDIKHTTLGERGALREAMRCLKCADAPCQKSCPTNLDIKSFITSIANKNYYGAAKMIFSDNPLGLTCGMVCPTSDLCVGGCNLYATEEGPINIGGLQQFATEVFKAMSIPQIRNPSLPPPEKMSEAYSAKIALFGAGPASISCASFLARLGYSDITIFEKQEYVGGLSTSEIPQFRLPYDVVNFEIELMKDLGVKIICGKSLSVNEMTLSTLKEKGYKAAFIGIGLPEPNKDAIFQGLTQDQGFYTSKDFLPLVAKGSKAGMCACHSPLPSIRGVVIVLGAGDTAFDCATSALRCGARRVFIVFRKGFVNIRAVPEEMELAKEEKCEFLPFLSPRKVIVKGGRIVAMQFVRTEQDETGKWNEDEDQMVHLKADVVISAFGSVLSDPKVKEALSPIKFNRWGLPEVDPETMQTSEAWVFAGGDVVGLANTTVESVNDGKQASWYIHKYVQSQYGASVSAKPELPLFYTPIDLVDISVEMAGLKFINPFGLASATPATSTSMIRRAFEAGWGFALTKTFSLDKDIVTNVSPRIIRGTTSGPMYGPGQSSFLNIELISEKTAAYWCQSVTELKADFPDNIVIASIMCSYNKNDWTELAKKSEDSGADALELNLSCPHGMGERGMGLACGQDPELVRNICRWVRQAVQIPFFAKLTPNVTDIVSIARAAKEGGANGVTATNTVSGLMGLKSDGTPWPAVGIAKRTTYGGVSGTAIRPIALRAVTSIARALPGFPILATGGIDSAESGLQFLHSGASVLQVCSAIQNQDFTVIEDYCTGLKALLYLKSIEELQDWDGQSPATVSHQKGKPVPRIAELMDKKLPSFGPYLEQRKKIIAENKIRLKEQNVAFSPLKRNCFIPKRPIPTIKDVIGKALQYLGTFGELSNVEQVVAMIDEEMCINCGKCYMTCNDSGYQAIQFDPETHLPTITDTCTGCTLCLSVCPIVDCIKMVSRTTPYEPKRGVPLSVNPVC

[5] = test system: EpiDerm™ skin model (normal, human-derived epidermal keratinocytes); assay: EpiDerm skin model dermal irritation, MTT conversion assay (ET50); type: cell-based
Text: The EpiDerm™ skin model system (MatTek) was used to assess the potential dermal irritation of eniluracil alone or its formulation. This system consists of normal, human-derived epidermal keratinocytes (NHEK) which have been cultured to form a multilayered, highly differentiated model of the human epidermis. […] The EpiDerm™ system is mitotically and metabolically active. Markers of mature epidermis-specific differentiation such as pro-filaggrin, the K1/K10 cytokeratin pair, involucrin, and type I epidermal transglutaminase have been localized in the model. […] The duration of exposure resulting in a 50% decrease in MTT conversion in test article-treated EpiDerm™ cultures, relative to control cultures, was determined (ET50). Eniluracil was prepared and administered to the test system at the three final concentrations of 1000 μM, 500 μM, and 100 μM, and tested at three exposure times of 8, 20, and 24 hours. The DMSO solvent control was tested at exposure times of 8 and 24 hours. The negative control was tested at exposure times of 4 and 24 hours, and the positive control was tested at exposure times of 4 and 8 hours. The results of the trial, presented in Table 1, confirmed that the three doses of eniluracil were well-tolerated by the EpiDerm™ skin model at topical exposures of up to 24 hours. […] Hydrochloric acid in an amount equivalent to the sodium hydroxide was added to neutralize the ointment. The exposure time control was also exposed in duplicate for 4 and 24 hours. Table 2 below summarizes the ET50 results of the EpiDerm™ assay for the test articles and the positive control, using the negative control results to determine the relative viability.

HEK 293 cells [6] = assay: [6-14C]-FUMP anabolite formation from [6-14C]-5-FU in HEK 293 cells, reverse phase HPLC; type: cell-based; settings: eniluracil 10 μM 1 hour, 48 hour washout, then [6-14C]-5-FU 66 μM 2 hours
Method: as §1

SMILES: O=c1[nH]cc(F)c(=O)[nH]1 [5-FU, 5-Fluorouracil]
Half-life of 5-FU ([1]; cancer patients, after 3.7 mg/m^2 eniluracil): 4.5 h | Elimination half-life of 5-FU ([1]; cancer patients, after one dose of eniluracil): 3.5 h | Elimination half-life of 5-FU ([1]; cancer patients, without eniluracil): about 10 minutes | EC50 (HEK 293 cells [2]; HEK293, 72 h, read-out: EC50 of 5-FU (mean ±SE), 72 hours, 5-FU treatment alone): 0.311 µM | EC50 (HEK 293 cells [2]; HEK293, read-out: EC50 of 5-FU (mean ±SE), 72 hours, after 1 hour eniluracil (5 μM) pre-treatment): 0.264 µM | EC50 (HEK 293 cells [2]; HEK293, read-out: EC50 of 5-FU (mean ±SE), 72 hours, eniluracil (5 μM) co-administered without preincubation): 0.308 µM | Ward carcinoma tumor response (Ward carcinoma tumors; Group B: eniluracil 1 mg/kg ip t=0, 5-FU 5 mg/kg iv t=60 min): rapidly eliminated | Ward carcinoma tumor response (Ward carcinoma tumors; Group C: eniluracil 1 mg/kg ip t=0, eniluracil 25 mg/kg ip t=55 min, 5-FU 5 mg/kg iv t=60 min): decreased only slightly in size

Increase in [6-14C]-FUMP formation versus [6-14C]-5-FU treatment alone (HEK 293 cells [6]): 70% | Increase in [6-14C]-FUMP formation versus eniluracil and [6-14C]-5-FU co-administration (HEK 293 cells [6]): 41%
SMILES: C#Cc1c[nH]c(=O)[nH]c1=O [eniluracil, 5-Ethynyluracil]
Elimination half-life for eniluracil ([1]; humans): about 3.5 hours | 5-FU-associated hand-foot syndrome toxicity ([3]; Phase II and Phase III trials, oral eniluracil with 5-FU): abrogated | Toxicity in Phase I clinical trials ([3]; cancer patients, eniluracil eliminating DPD activity): without causing toxicity | Antitumor activity versus standard 5-FU regimen without eniluracil ([3]; two Phase III studies, 28-day eniluracil and 5-FU regimen, colorectal cancer): less antitumor activity | Plasma uridine levels [4]: increase in uridine levels | Level of DPD, % of the predose level (DPD; 24 hours after one dose of eniluracil): 3% | DPD eliminated (DPD; dose of 0.74 mg/m^2 (about 1 mg total), for prolonged periods): greater than 90% | Tolerability in the EpiDerm skin model ([5]; 1000, 500 and 100 μM, topical exposures of up to 24 hours): well-tolerated | ET50 ([5]; eniluracil 100 uM): >24 h | ET50 ([5]; eniluracil 500 uM): >24 h | ET50 ([5]; eniluracil 1000 uM): >24 h | Effect of excess eniluracil on antitumor activity of 5-FU (Ward carcinoma tumors; Group C (extra 25 mg/kg eniluracil at 55 min) versus Group B): greatly diminished
